The text below walks through data of ChEMBL document CHEMBL1144023, “Computer-aided discovery of anti-inflammatory thiazolidinones with dual cyclooxygenase/lipoxygenase inhibition” (J Med Chem, 2008).

The term inhibition denotes the change of the read-out against control, counted positive when it falls. The term inhibition in vivo denotes the relative decrease from the control value, in per cent. Usually IC50 stands for the concentration at which inhibition is half-maximal.

Calls of active or inactive are those of the source. The rule behind the calls is not given here.

Assay [1] has as its target T1, Prostaglandin G/H synthase 1 (Ovis aries) (UniProt P05979).
T1 sequence (whole entry): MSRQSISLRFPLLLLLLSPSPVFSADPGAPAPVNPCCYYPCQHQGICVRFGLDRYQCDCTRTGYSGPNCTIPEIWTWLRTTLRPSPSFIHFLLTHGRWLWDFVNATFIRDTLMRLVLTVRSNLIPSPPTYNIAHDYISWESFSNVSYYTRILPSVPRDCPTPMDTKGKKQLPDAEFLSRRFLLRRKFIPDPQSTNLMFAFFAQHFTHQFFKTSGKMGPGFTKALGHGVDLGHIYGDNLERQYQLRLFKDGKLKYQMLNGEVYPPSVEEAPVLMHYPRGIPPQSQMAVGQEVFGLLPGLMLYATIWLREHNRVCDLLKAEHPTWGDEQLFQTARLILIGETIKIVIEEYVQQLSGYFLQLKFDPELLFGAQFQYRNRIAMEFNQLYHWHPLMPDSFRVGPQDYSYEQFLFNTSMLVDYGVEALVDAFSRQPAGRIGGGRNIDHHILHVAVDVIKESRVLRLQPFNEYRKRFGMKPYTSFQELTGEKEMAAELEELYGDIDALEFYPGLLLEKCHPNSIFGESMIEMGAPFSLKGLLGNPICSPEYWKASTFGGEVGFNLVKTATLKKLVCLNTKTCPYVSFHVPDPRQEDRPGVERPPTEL
Description: Inhibition of sheep COX1 at 200 uM in presence of 1 uM arachidonic acid.

Assay [2] has as its target T2, Prostaglandin G/H synthase 2 (Homo sapiens) (UniProt P35354).
T2 sequence (whole entry): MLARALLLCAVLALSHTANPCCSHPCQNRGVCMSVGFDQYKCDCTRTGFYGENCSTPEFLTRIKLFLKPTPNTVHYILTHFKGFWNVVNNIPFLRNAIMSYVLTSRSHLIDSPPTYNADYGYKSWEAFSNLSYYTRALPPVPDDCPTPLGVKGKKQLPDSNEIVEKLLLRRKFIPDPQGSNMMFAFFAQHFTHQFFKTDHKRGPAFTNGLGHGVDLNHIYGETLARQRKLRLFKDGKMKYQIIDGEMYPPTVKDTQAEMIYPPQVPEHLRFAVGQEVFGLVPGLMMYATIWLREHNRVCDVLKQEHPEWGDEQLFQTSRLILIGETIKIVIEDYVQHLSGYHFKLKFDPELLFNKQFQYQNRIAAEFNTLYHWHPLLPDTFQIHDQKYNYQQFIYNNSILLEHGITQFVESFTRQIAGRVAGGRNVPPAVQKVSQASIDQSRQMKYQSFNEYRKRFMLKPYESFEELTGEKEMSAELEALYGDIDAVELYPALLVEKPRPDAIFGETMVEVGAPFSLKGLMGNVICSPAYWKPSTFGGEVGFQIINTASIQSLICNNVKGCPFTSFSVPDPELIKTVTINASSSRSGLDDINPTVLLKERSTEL
Description: Inhibition of human recombinant COX2 at 200 uM.

Assay [3] concerns Mus musculus. Description: Antiinflammatory activity in AKR mouse assessed as inhibition of carrageenan-induced paw edema at 0.01 mmol/kg. The assay is classed as functional. (In general: The carrageenan paw model is a standard test of acute inflammation.)
Assay [4] has as its target T3, Seed linoleate 13S-lipoxygenase-1 (Glycine max) (UniProt P08170).
T3 sequence (whole entry): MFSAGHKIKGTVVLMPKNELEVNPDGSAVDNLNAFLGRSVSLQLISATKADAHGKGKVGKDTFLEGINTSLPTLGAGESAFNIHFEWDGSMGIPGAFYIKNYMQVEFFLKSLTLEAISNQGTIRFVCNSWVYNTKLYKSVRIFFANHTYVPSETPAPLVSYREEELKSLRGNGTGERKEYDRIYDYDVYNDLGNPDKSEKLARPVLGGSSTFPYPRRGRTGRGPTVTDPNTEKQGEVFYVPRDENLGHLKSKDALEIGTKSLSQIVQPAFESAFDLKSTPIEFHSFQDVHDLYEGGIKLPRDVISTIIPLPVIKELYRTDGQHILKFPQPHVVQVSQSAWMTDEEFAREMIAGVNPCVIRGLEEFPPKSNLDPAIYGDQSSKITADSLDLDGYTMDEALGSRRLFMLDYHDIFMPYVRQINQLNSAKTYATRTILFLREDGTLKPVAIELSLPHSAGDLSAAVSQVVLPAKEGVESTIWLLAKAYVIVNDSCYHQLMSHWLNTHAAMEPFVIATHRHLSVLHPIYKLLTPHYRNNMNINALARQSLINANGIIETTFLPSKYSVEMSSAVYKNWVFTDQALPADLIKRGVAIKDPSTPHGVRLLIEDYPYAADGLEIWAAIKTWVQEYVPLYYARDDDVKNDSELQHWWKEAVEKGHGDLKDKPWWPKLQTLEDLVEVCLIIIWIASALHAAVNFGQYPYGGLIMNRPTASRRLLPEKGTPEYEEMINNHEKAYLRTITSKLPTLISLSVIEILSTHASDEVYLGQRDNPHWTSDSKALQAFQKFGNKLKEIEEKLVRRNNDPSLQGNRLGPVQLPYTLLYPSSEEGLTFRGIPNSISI
Description: Inhibition of soybean LOX at 100 uM.

Assay [5] addresses T1, Prostaglandin G/H synthase 1 (Ovis aries). Nature of the assay: Inhibition of sheep COX1 at 200 uM in presence of 100 uM arachidonic acid.
The target in assay [6] is T4, Prostaglandin G/H synthase 2 (Homo sapiens, UniProt P35354).
T4 sequence (P35354 whole entry): T2 sequence (whole entry)
Description: Inhibition of human recombinant COX2.

`O=C1CSC(Nc2nccs2)=N1`: the inhibition in assay [1] and in assay [2] was 0% in each case.

As for `O=C1N/C(=N\c2nccs2)S/C1=C/c1ccc([N+](=O)[O-])cc1`, the inhibition in vivo at 10 µmol/kg in assay [3] amounted to 66.1%. Moreover, the inhibition in assay [1] turned out to be 60%; in assay [2], 4.5%; in assay [4], 12.5%. In assay [5], the outcome was inactive.

For `O=C1N/C(=N\c2nccs2)S/C1=C/c1cccc(Cl)c1`, in assay [3], the inhibition in vivo at 10 µmol/kg is 44.5%. The inhibition in assay [1] turned out to be 90%; in assay [2] it was 30.4%; in assay [4], 12%. Moreover, the result in assay [5] was inactive. The concentration for half-maximal inhibition (IC50) in assay [6] stood at 262 µM.

With `COc1ccc(/C=C2/S/C(=N/c3nccs3)NC2=O)cc1`, the inhibition in vivo at 10 µmol/kg in assay [3] was 51.1%. Besides, the inhibition was 8% in assay [1], 2.5% in assay [2] and 22.4% in assay [4]. For the same molecule, the outcome in assay [5] was inactive.
